The IC50 is the concentration needed to halve the response being measured.

Values after ≈ are worked out from the molar mass of the structure shown. “Also recorded” adds a separate entry of the source.

Data on three compounds can be found in patent publication US11466044B2 (WAYNE STATE UNIVERSITY, priority 2017, dated 2022).

For one assay, the system named is MRSA. The assay can be described thus: MIC by broth microdilution, MRSA isolates. In kind it is cell-based. A general note: Broth dilution looks for growth in wells or tubes with falling amounts of substance.
The test system of assay [1] is Klebsiella pneumonia AG215. The assay can be described thus: MIC by broth microdilution, Klebsiella pneumonia. In kind it is cell-based. The following applies: strain AG215 Klebsiella pneumonia.
The test system of assay [2] is cytosolic ribosome (human chimeric). It counts as biochemical. As to conditions: for IC50: ribosomes with a human cytosolic decoding site, read-out: IC50 Cytosolic. The source says: (§1) The antiribosomal activity of these compounds was investigated with cell-free translation assays using both wild type bacterial ribosomes and hybrid ribosomes carrying eukaryotic decoding A sites enabling the prediction of selectivity.

The subject of assay [3] is mitochondrial ribosome (human chimeric). In kind it is biochemical. The following applies: for IC50: ribosomes with a human mitochondrial decoding site, read-out: IC50 Mitoch.
Text: as §1

Another assay relates to M. smegmatis SZ380. The assay can be described thus: MIC by broth microdilution, M. smegmatis.
The test system of assay [4] is A1555G mutant mitochondrial ribosome (human chimeric). The assay can be described thus: in-vitro translation assay, human chimeric ribosomes, A1555G mutant mitochondrial decoding site. In kind it is biochemical. As to conditions: for IC50: human mitochondrial decoding site with A1555G point mutation, read-out: IC50 Mitoch. A1555G.
Text: as §1

Assay [5] has as its system E coli carrying specific resistance determinants. Briefly: MIC by broth microdilution, E coli carrying specific resistance determinants. It counts as cell-based.
The test system of another assay is P aeruginosa. The assay can be described thus: MIC by broth microdilution, P aeruginosa isolates. In kind it is cell-based, Pseudomonas aeruginosa.
The subject of assay [6] is Acinetobacter baumannii pittii AG225. The assay can be described thus: MIC by broth microdilution, Acinetobacter baumannii. As to conditions: strain AG225 Acinetobacter baumannii pittii. It counts as cell-based.
In a further assay the test system is E coli wild type. The assay can be described thus: MIC by broth microdilution, wild type E coli. In kind it is cell-based. The following applies: for MIC AG001 E. coli WT: clinical isolate AG001, WT.
Assay [7] has as its system wild type bacterial ribosomes. The assay can be described thus: in-vitro translation assay, bacterial ribosomes. It counts as biochemical. The following applies: Mycobacterium smegmatis ribosomes; read-out: IC50 Bacterial.
Text: as §1

`CC(=O)NC1C(OC2C(N)CC(N)C(O)C2OC2OC(CO)C(OC3OC(CN)C(O)C(O)C3N)C2O)OC(CN)C(O)C1O` (centres unmarked) [Compound 183]: the “MIC MRSA AG038” value in the assay with MRSA (clinical isolate AG038, Table 1 (Example 3)) is greater than 32 µg/mL. Moreover, the “MIC MRSA AG039” value against MRSA (clinical isolate AG039, Table 1 (Example 3)) is greater than 32 µg/mL. Besides, the “MIC MRSA AG042” value against MRSA (clinical isolate AG042, Table 1 (Example 3)) was greater than 32 µg/mL. For the same compound, in [1], the “MIC AG215 K. pneumon” value is greater than 32 µg/mL. The “Selectivity for Binding to the Bacterial Ribosome over the Cytosolic Ribosome” value in [2] (Table 3 (Example 3)) is recorded as 28. Moreover, in [3] (Table 3 (Example 3)), the “Selectivity for Binding to the Bacterial Ribosome over the Mitochondrial Ribosome” value came to 18. Also, the “MIC M. smegmatis SZ380 WT” value against M. smegmatis SZ380 (SZ380 WT, Table 5 (Example 3)) is 8 µg/mL (≈ 12.2 µM). The “MIC SZ380 M. smegmatis” value with M. smegmatis SZ380 (strain SZ380 Mycobacterium smegmatis) was determined as 8 µg/mL (≈ 12.2 µM). For the same compound, in assay [4] (Table 3 (Example 3)), the “Selectivity for Binding to the Bacterial Ribosome over the Mutant Mitochondrial Ribosome” value came to 5.2. Besides, the “MIC E. coli AG106 AAC(2′)-Ia” value in assay [5] (AG106 AAC(2′)-Ia, Table 5 (Example 3)) worked out at 128 µg/mL (≈ 195 µM). In addition, the “MIC E coli AG106 AAC(2′)” value in assay [5] (AG106 AAC(2′), Table 2 (Example 3)) is 128 µg/mL (≈ 195 µM). The “MIC E. coli pGB2armA armA” value in assay [5] (pGB2armA armA, Table 5 (Example 3)) is recorded as 128-256 μg/ml. Besides, the “MIC AG220 P. aerugin” value against P aeruginosa (strain AG220 Pseudomonas aeruginosa ATCC27853) was greater than 32 µg/mL. In [6], the “MIC AG225 A. baumannii” value was greater than 32 µg/mL. The “MIC E coli AG006 Wild type” value in the assay on E coli wild type (AG006 Wild type, Table 2 (Example 3)) was determined as 64 µg/mL (≈ 97.5 µM). Further, the “MIC E coli AG104 Wild type” value against E coli wild type (AG104 Wild type, Table 2 (Example 3)) is 128 µg/mL (≈ 195 µM). For the same compound, the “antibacterial activity, in words” value in the assay on E coli wild type (MRSA and E coli, compared with the parent compound) is “very substantial loss of activity; also recorded: very significantly reduced activity”. Further, in the assay on E coli wild type (WT, Table 5 (Example 3)), the “MIC E. coli WT” value is 128 µg/mL (≈ 195 µM). Further, the “MIC E coli AG001” value against E coli wild type (clinical isolate AG001, Table 1 (Example 3)) is greater than 32 µg/mL. Further, the “MIC E coli AG003” value in the assay with E coli wild type (clinical isolate AG003, Table 1 (Example 3)) is greater than 32 µg/mL. For the same compound, in the assay on E coli wild type (clinical isolate AG055, Table 1 (Example 3)), the “MIC E coli AG055” value is greater than 32 µg/mL. Also, in the assay with E coli wild type (strain AG212 E. coli (ATCC25922)), the “MIC AG212 E. coli” value was greater than 32 µg/mL.
For the compound `NCC1OC(OC2C(CO)OC(OC3C(O)C(N)CC(N)C3OC3OC4C(O)COC4C(O)C3N)C2O)C(N)C(O)C1O` (centres unmarked) [DC204], in the assay with MRSA (clinical isolate AG038), the “MIC AG038 MRSA” value worked out at 8 µg/mL (≈ 12.7 µM). Moreover, the IC50 in assay [2] is 276 µM; in assay [3], 131 µM; in assay [4] it was 117 µM; in [7], 0.2 µM. Also, the “MIC AG001 E. coli WT” value against E coli wild type was found to be 16 µg/mL (≈ 25.5 µM).
With `NCC1OC(OC2C(CO)OC(OC3C(O)C(N)CC(N)C3OC3OC4C(O)CCOC4C(O)C3N)C2O)C(N)C(O)C1O` (centres unmarked) [DC210], the “MIC AG038 MRSA” value in the assay with MRSA (clinical isolate AG038) stood at 4 µg/mL (≈ 6.23 µM). The IC50 turned out to be 50 µM in [2], 329 µM in assay [3], 44 µM in [4] and 0.04 µM in assay [7]. Further, the “MIC AG036 ANT(4′,4′′)” value in assay [5] (E. coli strain AG036, ANT(4′,4′′)) came out at 2 µg/mL (≈ 3.12 µM). In addition, the “MIC AG037 APH(3′)-III” value in assay [5] (E. coli strain AG037, APH(3′)-III) was greater than 128 µg/mL. The “MIC pH421 APH(3)-I” value in assay [5] (E. coli strain pH421, APH(3)-I) was greater than 128 μg/ml. Further, the “MIC pH422 APH(3′)-II” value in assay [5] (E. coli strain pH422, APH(3′)-II) is 32 μg/ml. Also, the “MIC pH423 APH(3′)-VI” value in assay [5] (E. coli strain pH423, APH(3′)-VI) is 4 μg/ml. The “MIC AG031 P. aer. APH(3′)-II” value against P aeruginosa (clinical isolate AG031, APH(3′)-II) turned out to be 64 µg/mL (≈ 99.7 µM). In the assay with E coli wild type (E. coli strain pH430, WT), the “MIC pH430 WT” value was 2-4 μg/ml. In the assay with E coli wild type, the “MIC AG001 E. coli WT” value turned out to be 4 µg/mL (≈ 6.23 µM).
